Test results as given in US20170320848A1, “COMPOUNDS FOR USE IN ANTHELMINTHIC TREATMENT” (Bayer Animal Health GMBH, priority 2014, published 2017).
Like-named read-outs stand apart in the source and are kept apart here.

What was measured:
[1] = test system: Cooperia curticei; assay: Cooperia curticei assay (COOPCU), larval mortality; format: cell-based; conditions: Cooperia curticei, 120 h, after 5 days, read-out: activity (percentage of larval mortality); for mortality at 20 ppm: application rate 20 ppm
Procedure: Cooperia Curticei—Assay (COOPCU)
(§1) Solvent: dimethyl sulfoxide
(§2) To produce a suitable preparation, 10 mg of active compound are dissolved in 0.5 ml solvent, and the concentrate is diluted with “Ringer's solution” to the desired concentration.
Approximately 40 nematode larvae (Cooperia curticei) are transferred into a test tube containing the compound solution.
After 5 days percentage of larval mortality is recorded. 100% efficacy means all larvae are killed; 0% efficacy means no larvae are killed.

[2] = Measurement of LogP values by HPLC on reversed phase columns (EEC directive 79/831 Annex V.A8); format: physicochemical; conditions: acidic range, 0.1% formic acid in water and acetonitrile as eluent; for chromatographic logP: read-out: logP (HCOOH)[a]
[3] = test system: Nippostrongylus brasiliensis; assay: Nippostrongylus brasiliensis assay (NIPOBR), acetylcholine esterase readout; format: cell-based; conditions: read-out: activity (reduction of AChE compared to negative control)
Procedure: Nippostrongylus Brasiliensis—Assay (NIPOBR)
Adult Nippostrongylus brasiliensis were washed with saline buffer containing 100 U/ml penicillin, 0.1 mg/ml streptomycin and 2.5 μg/ml amphotericin B. Test compounds were dissolved in DMSO and worms were incubated in medium in a final concentration of 10 μg/ml (10 ppm) respectively 1 μg/ml (1 ppm). An aliquot of the medium was used to determine the acetylcholine esterase activity in comparison to a negative control. The principle of measuring acetylcholine esterase as readout for anthelmintic activity was described in Rapson et al (1986) and Rapson et al (1987).

[4] = test system: Haemonchus contortus; assay: Haemonchus contortus assay (HAEMCO), larval mortality; format: cell-based; conditions: after 5 days
Procedure: Haemonchus Contortus—Assay (HAEMCO)
as §1, §2
Approximately 40 larvae of the red stomach worm (Haemonchus contortus) are transferred into a test tube containing compound solution.
After 5 days percentage of larval mortality are recorded. 100% efficacy means all larvae are killed, 0% efficacy means no larvae are killed.

[5] = test system: Meloidogyne incognita; assay: Meloidogyne incognita assay (MELGIN), gall formation on salad seedlings; format: in vivo; conditions: application rate 20 ppm, after 14 days
Procedure: Meloidogyne Incognita—Assay (MELGIN)
Solvent: 125.0 parts by weight of acetone
To produce a suitable preparation, 1 part by weight of active compound is mixed with the stated amount of solvent, and the concentrate is diluted with water to the desired concentration.
Vessels are filled with sand, a solution of the active ingredient, a suspension containing eggs and larvae of the southern root-knot nematode (Meloidogyne incognita) and salad seeds. The salad seeds germinate and the seedlings grow. Galls develop in the roots.
After 14 days the nematicidal activity is determined on the basis of the percentage of gall formation. 100% means no galls were found and 0% means the number of galls found on the roots of the treated plants was equal to that in untreated control plants.

[6] = Haemonchus contortus, 120 h, application rate 20 ppm, read-out: activity (percentage of larval mortality)

Row | SMILES | mortality at 20 ppm [1] | chromatographic logP [2] | inhibition at 10 µg/mL [3] | mortality at 20 ppm [4, 6] | nematicidal activity (percentage of gall formation) [5] | also measured
1 | COc1cc(-c2ccc(F)cc2)ccc1C(F)(F)CNC(=O)c1ccccc1C(F)(F)F [Example 37] | 100% | 3.89 | ≥ 75% | 90% | – | –
2 | N#Cc1ccc(-c2ccc(C(F)(F)CNC(=O)c3ccccc3C(F)(F)F)c(Cl)c2)cc1F [Example 25] | 100% | 3.77 | ≥ 75% | 100% | 100% | –
3 | O=C(NCC(F)(F)c1ccc(-c2ccc(F)cc2)cc1F)c1cccnc1C(F)(F)F [Example 19] | 100% | – | – | 100% | – | –
4 | O=C(NCC(F)(F)c1ccc(-c2c(F)cccc2F)cc1Cl)c1ccccc1C(F)(F)F [Example 31] | 100% | – | – | 80% | – | chromatographic logP ([2]; reversed phase HPLC columns): 3.99
5 | O=C(NCC(F)(F)c1ccc(-c2ccc(Cl)cc2)cc1Cl)c1cccnc1C(F)(F)F [Example 4] | – | – | – | – | – | mortality at 4 ppm ([1]; application rate 4 ppm): 100%; chromatographic logP ([2]; reversed phase HPLC columns): 4.14; mortality at 4 ppm ([4]; Haemonchus contortus, 120 h, application rate 4 ppm, read-out: activity (percentage of larval mortality)): 90%
6 | O=C(NCC(F)(F)c1ccc(-c2ccc(Cl)cc2)cc1C(F)(F)F)c1cccnc1C(F)(F)F [Example 18] | 100% | – | – | 100% | – | –
7 | O=C(NCC(F)(F)c1ccc(-c2ccc(OC(F)(F)F)cc2)cc1C(F)(F)F)c1ccccc1C(F)(F)F [Example 15] | 100% | – | – | 90% | – | –
8 | O=C(NCC(F)(F)c1ccc(-c2ccc(F)cc2)cc1F)c1ccccc1C(F)(F)F [Example 7, N-(2-(3,4′-Difluoro-[1,1′-biphenyl]-4-yl)-2,2-difluoroethyl)-2-(trifluoromethyl)benzamide] | 100% | – | – | 90% | – | inhibition at 10 µg/mL ([3]; 10 μg/ml, adult worms): ≥ 75%
9 | O=C(NCC(F)(F)c1ccc(-c2ccc(Cl)cc2)cc1C(F)(F)F)c1ccccc1C(F)(F)F [Example 13] | 100% | – | – | 90% | – | inhibition at 10 µg/mL ([3]; 10 μg/ml, adult worms): ≥ 75%
10 | O=C(NCC(F)(F)c1ccc(-c2ccc(SC(F)(F)F)cc2)cc1Cl)c1ccccc1C(F)(F)F [Example 23] | 100% | 4.98 | ≥ 75% | 100% | – | –
11 | O=C(NCC(F)(F)c1ccc(-c2ccc(C(F)(F)F)c(F)c2)cc1Cl)c1ccccc1C(F)(F)F [Example 22] | 100% | 4.62 | ≥ 75% | 90% | – | –
12 | CSc1ccc(-c2ccc(C(F)(F)CNC(=O)c3ccccc3C(F)(F)F)c(Cl)c2)cc1 [Example 26] | 100% | – | – | 100% | – | chromatographic logP ([2]; reversed phase HPLC columns): 4.43
13 | O=C(NCC(F)(F)c1ccc(-c2ccc(F)cc2)cc1Cl)c1cccnc1C(F)(F)F [Example 9] | 100% | – | – | 100% | 100% | chromatographic logP ([2]; reversed phase HPLC columns): 3.68
14 | O=C(NCC(F)(F)c1ccc(-c2ccc(F)cc2)cc1C(F)(F)F)c1ccccc1C(F)(F)F [Example 12, N-(2,2-Difluoro-2-(4′-fluoro-3-(trifluoromethyl)-[1,1′-biphenyl]-4-yl)ethyl)-2-(trifluoromethyl)benzamide] | 100% | – | – | 100% | – | inhibition at 10 µg/mL ([3]; 10 μg/ml, adult worms): ≥ 75%
15 | O=C(NCC(F)(F)c1ccc(-c2ccc(Cl)cc2)cc1Cl)c1ccccc1C(F)(F)F [Example 1] | 100% | 4.58 | – | 100% | – | inhibition at 10 µg/mL ([3]; 10 μg/ml, adult worms): ≥ 75%
16 | O=C(NCC(F)(F)c1ccc(-c2cc(F)c(F)c(F)c2)cc1Cl)c1ccccc1C(F)(F)F [Example 32] | 100% | 4.44 | ≥ 75% | 100% | 100% | –
17 | N#Cc1ccc(-c2ccc(C(F)(F)CNC(=O)c3ccccc3C(F)(F)F)c(Cl)c2)cc1C(F)(F)F [Example 97] | – | – | – | – | – | logP (HCOOH)[a] [2]: 4.12; activity (percentage of larval mortality) ([4]; application rate 20 ppm): 80%
18 | Cc1cc(-c2ccc(F)cc2)ccc1C(F)(F)CNC(=O)c1ccccc1C(F)(F)F [Example 38] | 100% | 4.16 | ≥ 75% | 100% | 100% | –

Row | SMILES | mortality at 20 ppm [1] | chromatographic logP [2] | inhibition at 10 µg/mL [3] | mortality at 20 ppm [4, 6] | nematicidal activity (percentage of gall formation) [5] | also measured
19 | O=C(NCC(F)(F)c1ccc(-c2ccc(F)cc2)cc1C(F)(F)F)c1cccnc1C(F)(F)F [Example 17, N-(2,2-Difluoro-2-(4′-fluoro-3-(trifluoromethyl)-[1,1′-biphenyl]-4-yl)ethyl)-2-(trifluoromethyl)-nicotinamide] | 100% | – | ≥ 75% | 100% | 90% | –
20 | O=C(NCC(F)(F)c1c(F)cc(-c2ccc(F)cc2)cc1F)c1ccccc1C(F)(F)F [Example 16] | 100% | – | – | 100% | – | chromatographic logP ([2]; reversed phase HPLC columns): 3.95
21 | O=C(NCC(F)(F)c1ccc(-c2ccc(F)c(F)c2)cc1Cl)c1ccccc1C(F)(F)F [Example 33] | 100% | 4.26 | ≥ 75% | 100% | – | –
22 | O=C(NCC(F)(F)c1ccc(-c2ccc(OC(F)(F)F)cc2)cc1F)c1ccccc1C(F)(F)F [Example 14] | 100% | – | – | 90% | – | –
23 | O=C(NCC(F)(F)c1ccc(-c2ccccc2)cc1Cl)c1ccccc1C(F)(F)F [Example 2] | 100% | 4.05 | – | 100% | – | inhibition at 10 µg/mL ([3]; 10 μg/ml, adult worms): ≥ 75%
24 | N#Cc1ccc(-c2ccc(C(F)(F)CNC(=O)c3ccccc3C(F)(F)F)c(Cl)c2)cc1 [Example 27] | 100% | 3.62 | ≥ 75% | 100% | 100% | –
25 | O=C(NCC(F)(F)c1ccc(-c2ccc(Cl)cc2)cc1F)c1ccccc1C(F)(F)F [Example 5] | 100% | – | ≥ 75% | 80% | – | –
26 | O=C(NCC(F)(F)c1ccc(-c2ccc(F)cc2)cc1Cl)c1ccccc1C(F)(F)F [Example 3, N-[2-[2-chloro-4-(4-fluorophenyl)phenyl]-2,2-difluoro-ethyl]-2-(trifluoromethyl)benzamide] | 100% | 4.14 | – | 100% | – | logP (HCOOH)[a] [2]: 4.10; inhibition at 10 µg/mL ([3]; 10 μg/ml, adult worms): ≥ 75%
27 | Cc1cc(-c2ccc(Cl)c(F)c2)ccc1C(F)(F)CNC(=O)c1ccccc1C(F)(F)F [Example 125] | – | – | – | – | 100% | logP (HCOOH)[a] [2]: 4.61
28 | O=C(NCC(F)(F)c1ccc(-c2ccc(Cl)cc2)cc1F)c1cccnc1C(F)(F)F [Example 20] | 100% | – | – | 90% | – | –
29 | O=C(NCC(F)(F)c1ccc(-c2ccc(F)c(C(F)(F)F)c2)cc1Cl)c1ccccc1C(F)(F)F [Example 21] | 100% | 4.55 | ≥ 75% | 90% | – | –
30 | Cc1cc(-c2cc(F)c(Cl)c(F)c2)ccc1C(F)(F)CNC(=O)c1ccccc1C(F)(F)F [Example 126] | – | – | – | – | 90% | logP (HCOOH)[a] [2]: 4.77
31 | Cc1cc(-c2cccc(F)c2F)ccc1C(F)(F)CNC(=O)c1ccccc1C(F)(F)F [Example 127] | – | – | – | – | 90% | logP (HCOOH)[a] [2]: 4.1
32 | Cc1cc(-c2ccc(C#N)cc2)ccc1C(F)(F)CNC(=O)c1ccccc1C(F)(F)F [Example 49] | – | – | – | – | 100% | logP (HCOOH)[a] [2]: 3.7
33 | O=C(NCC(F)(F)c1ccc(-c2ccc(F)cc2F)cc1Cl)c1ccccc1C(F)(F)F [Example 36] | 100% | 4.22 | ≥ 75% | 100% | – | –
34 | COc1cc(-c2ccc(C(F)(F)CNC(=O)c3ccccc3C(F)(F)F)c(Cl)c2)ccc1F [Example 34] | 100% | – | – | 100% | – | chromatographic logP ([2]; reversed phase HPLC columns): 4.09
35 | O=C(NCC(F)(F)c1ccc(-c2cc(F)cc(F)c2)cc1Cl)c1ccccc1C(F)(F)F [Example 35] | 100% | 4.3 | ≥ 75% | 100% | 100% | –
